# In publication PMC8881469, “Molecular recognition of formylpeptides and diverse agonists by the formylpeptide receptors FPR1 and FPR2” (Nature Communications, 2022):
# Read-outs that look alike come from different tables or passages of the source.
# How the values were obtained:
# [1] = test system: FPR2 R201A; details: cited from earlier work
# Excerpt: (§1) To investigate critical structural determinants for the binding of CGEN-885A, we measured the CGEN-885A-induced signaling of FPR2 with mutations of residues in the CGEN-885A-binding pocket. […] Considering the negatively charged environment of the ligand-b ...
# [2] = test system: FPR2 R205A; details: cited from earlier work
# Excerpt: as §1
# [3] = test system: FPR1 versus FPR2; details: cited from earlier work
# [4] = test system: FPR1; details: cited from earlier work
# [5] = test system: FPR2; details: cited from earlier work
# [6] = multiple studies; cited from earlier work
# [7] = test system: FPR1 D106A; test: cAMP accumulation assay, HEK293 cells, Epac-based FRET biosensor H187, 1 µM forskolin; type: cell-based, human; details: FPR1 D106A vs wild type
# Protocol: (§2) An Epac-based FRET cAMP biosensor H187 was used to measure cellular cAMP levels. The plasmid encoding H187 was transfected into HEK293 cells to make stable cells reporting intracellular cAMP levels. In brief, the H187 stable cells were seeded in poly-D-lysine treated 96-well black clear-bottom plate at 30,000 cells per well. 24 h later, cells were transiently transfected with DNA encoding the N-terminal FLAG-tagged wild-type FPR1, FPR2 or mutants at an amount of 0.1 µg DNA per well. Assays were performed 24 h after transfection. Cells were washed twice with HBSS buffer and incubated at room temperature for 30 min before the addition of forskolin to a final concentration of 1 µM. The intracellular cAMP level was measured using a multimode reader (Spark 20 M, TECAN) measuring the fluorescence emission intensity at 485 nm and 535 nm upon the excitation at 430 nm. 15 min after forskolin incubation, cells were stimulated with agonists at different concentrations and measured for additional 20 min. The FRET signal was calculated as the normalized FRET ratio of fluorescence emission at 535 nm (F535) divided by emission at 485 nm (F485). The EC50 was determined with the FRET ratio at the timepoint of 1600 s. The data analysis was performed using the nonlinear regression fit logIC50 mode in GraphPad Prism.
# [8] = test system: FPR1 F102H; test: as above; type: cell-based, human; details: FPR1 F102H vs wild type
# Protocol: as §2
# [9] = test system: FPR1 R201A; test: as above; type: cell-based, human; details: FPR1 R201A vs wild type
# Protocol: as §2
# [10] = test system: FPR1 R205A; test: as above; type: cell-based, human; details: FPR1 R205A vs wild type
# Protocol: as §2
# [11] = test system: FPR1 R84D; test: as above; type: cell-based, human; details: FPR1 R84D vs wild type
# Protocol: as §2
# [12] = test system: FPR1 Y257F; test: as above; type: cell-based, human; details: FPR1 Y257F vs wild type
# Protocol: as §2
# [13] = test system: FPR1; details: short formylpeptides; cited from earlier work
# Excerpt: The human formylpeptide receptor (FPR) family comprises of three members, FPR1, FPR2 (also named FPRL1), and FPR3[1]. They were initially discovered and characterized as pattern recognition G protein-coupled receptors (GPCRs) to recognize peptides with N-terminal formyl methionine, which are derived from invading pathogens or host mitochondria as pathogen- or damage-associated molecular patterns (PAMPs and DAMPs)[1]–[5]. FPR1 and FPR2 share a high sequence similarity, yet they display different preferences of formylpeptides. FPR1 is a high-affinity receptor for many short formylpeptides suc ...
# [14] = test system: FPR2 F110A; test: cAMP accumulation assay, HEK293 cells, Epac-based FRET biosensor H187, 1 µM forskolin; type: cell-based, human
# Protocol: as §2
# [15] = test system: FPR2 R201A; test: as above; type: cell-based, human
# Protocol: as §2
# [16] = test system: FPR2 R205A; test: as above; type: cell-based, human
# Protocol: as §2
# [17] = test system: FPR2; details: relative to C43; cited from earlier work
# Excerpt: Similar to peptide agonists, C43 causes conformational changes of residues in the activation chamber including V113^3.40 and W254^6.48 through direct interactions to activate the receptor.
# [18] = test system: FPR2; details: at various concentrations; cited from earlier work
# Excerpt: This may be due to the coupling of Gi, which stabilizes the receptor in one active conformation. Thus, it is difficult to speculate on the specific conformational states of FPR2 associated with pro-inflammatory and pro-resolving agonists.
compound,measurement,setting,value
WKYMVm,"agonistic activity, effect of mutation R201A",[1],much compromised agonistic activities
same,"agonistic activity, effect of mutation R205A",[2],much compromised agonistic activities
fMLFII [formylpeptide agonist for both FPR1 and FPR2],fold higher potency in activating FPR1 than FPR2,[3]; FPR1 relative to FPR2,~ 100 fold
same,affinity for FPR1 relative to FPR2,[3]; FPR1 vs FPR2,higher affinity
same,agonist activity on FPR1,[4]; formylpeptide agonist,potent
same,agonist activity on FPR2,[5]; formylpeptide agonist,potent
COc1cccc(Cc2cc(C)nn(C(C)C(=O)Nc3ccc(Br)cc3)c2=O)c1 (centres unmarked) [Compound 17b],pro-resolving and cardiac protective effects,[6],pro-resolving and cardiac protective effects
"N-formyl-Met-Leu-Phe [fMLF, prototypical formylpeptide]","agonistic potency, effect of mutation D106A",[7],compromised agonistic potency
same,"potency in activating FPR1, effect of mutation of F102 to FPR2 counterpart",[8],reduced potency
same,"agonistic potency, effect of mutation R201A",[9],compromised agonistic potency
same,"agonistic potency, effect of mutation R205A",[10],compromised agonistic potency
same,"potency in activating FPR1, effect of mutation R84D",[11],reduces the potency
same,"potency in activating FPR1, effect of mutation of Y257 to FPR2 counterpart",[12],reduced potency
same,fold less potent (in terms of EC50) in inducing FPR2 signaling than FPR1,[3]; FPR2 relative to FPR1,about 1000 fold
same,FPR1 affinity,[13],high-affinity
COc1cc(F)c([C@@H]2CNC(=O)[C@H]2NC(=O)Nc2ccccc2)c(F)c1 [BMS-986235],pro-resolving and cardiac protective effects,[6],pro-resolving and cardiac protective effects
CC(C)c1c(NC(=O)Nc2ccc(Cl)cc2)c(=O)n(-c2ccccc2)n1C [C43],"agonistic action, effect of mutation F110A",[14],nearly undetectable agonistic action
same,"agonistic action, effect of mutation R201A",[15],nearly undetectable agonistic action
same,"agonistic action, effect of mutation R205A",[16],nearly undetectable agonistic action
same,ligand potency on alternating the para-position of the chloride group,[17],significant loss of ligand potency
same,agonist activity on FPR1,[4]; small-molecule agonist,potent
same,agonist activity on FPR2,[5]; small-molecule agonist,potent
"CCCCC[C@@H](O)/C=C/C=C\C=C\C=C\[C@@H](O)[C@@H](O)CCCC(=O)O [ATL, aspirin-triggered 15-epi-lipoxin A4]",FPR2 signaling responses,[18],unusual biphasic signaling responses
